Here are results for 8 compounds from patent US20210269434A1, “TRICYCLIC COMPOUNDS AS INHIBITORS OF KRAS” (Incyte Corporation, priority 2020, published 2021).

Where only a bound is given, the exact number is not on record here.

The subject of experiment [1] is MIA PaCa-2 (KRAS G12C) cells. Description: Cellular pERK HTRF assay (KRAS_G12C pERK). The conditions noted are these: Homo sapiens, MIA PaCa-2, 4 hours incubation, read-out: G12C_pERK. Format: cell-based, human. A digest of the protocol:
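Phospho-ERK1/2 HTRF readout (665 and 620 nm) in lysed MIA PaCa-2 cells, antibodies incubated overnight at room temperature. Cells seeded the day before and treated with G12C compounds for 4 h at 37 °C; IC50 fitted to percent inhibition against log inhibitor concentration.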
A general note: In TR-FRET formats the signal depends on donor and acceptor labels being close together.

A further experiment deals with KRAS G12C (Homo sapiens, UniProt P01116, G12C). Description: GDP-GTP exchange assay (KRAS_G12C exchange). Format: biochemical. The conditions noted are these: bodipy-GDP loaded KRAS G12C 2.5 nM, SOS1 150 nM, GppNHp; 2 hours pre-incubation, 2 hours reaction; read-out: G12C_exchange. The essentials: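 Fluorescence exchange of bodipy-GDP for GppNHp, SOS1-driven, read at 485/520 nm; IC50 from four-parameter variable-slope fit. Both mutants used 2.5 nM final labelled protein and a 2 h compound pre-incubation. G12C reaction had 500 uM GppNHp and 150 nM SOS1 for 2 h; G12D ran 4 h.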
KRAS G12C, sequence (P01116 1-188 isoform P01116-2 G12C): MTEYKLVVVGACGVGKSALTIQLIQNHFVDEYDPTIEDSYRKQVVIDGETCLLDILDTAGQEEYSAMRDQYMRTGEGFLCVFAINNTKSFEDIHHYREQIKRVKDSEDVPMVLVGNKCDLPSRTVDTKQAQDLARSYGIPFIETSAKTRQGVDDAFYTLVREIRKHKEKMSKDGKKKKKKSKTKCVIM

Consider `C=CC(=O)N1CC[C@H](n2cnc3c(N4CC(N(C)C)C4)nc4c(F)c(-c5cccc(C)c5C(F)(F)F)c(Cl)cc4c32)C[C@H]1CC#N` [Example 264, 2-((2S,4S)-1-acryloyl-4-(8-chloro-4-(3-(dimethylamino)azetidin-1-yl)-6-fluoro-7-(3-methyl-2-(trifluoromethyl)phenyl)-1H-imidazo[4,5-c]quinolin-1-yl)piperidin-2-yl)acetonitrile], for which the IC50 (in experiment [1]; on KRAS G12C) was not above 100 nM each time.
For the compound `CC#CC(=O)N1CC[C@H](n2nnc3c(N4CCCCC4=O)nc4c(F)c(-c5cccc(Cl)c5C)c(Cl)cc4c32)C[C@H]1CC#N` [Example 93, 2-((2S,4S)-1-(but-2-ynoyl)-4-(8-chloro-7-(3-chloro-2-methylphenyl)-6-fluoro-4-(2-oxopiperidin-1-yl)-1H-[1,2,3]triazolo[4,5-c]quinolin-1-yl)piperidin-2-yl)acetonitrile], the IC50 (in experiment [1]; on KRAS G12C) was not above 100 nM in each case.
Take `C=CC(=O)N1CCCC(n2cnc3c(OC[C@@H]4CCCN4C)nc4c(F)c(-c5cc(O)cc6ccccc56)c(Cl)cc4c32)C1` (mixture of isomers) [Example 5, 1-(3-(8-chloro-6-fluoro-7-(3-hydroxynaphthalen-1-yl)-4-(((S)-1-methylpyrrolidin-2-yl)methoxy)-1H-imidazo[4,5-c]quinolin-1-yl)piperidin-1-yl)prop-2-en-1-one]: the IC50 was 1000 to 5000 nM in experiment [1] and not above 100 nM at KRAS G12C.
For `C=CC(=O)N1CC[C@H](n2cnc3c(N4CC(N(C)C)C4)nc4c(F)c(-c5cccc(Cl)c5Cl)c(Cl)cc4c32)C[C@H]1CC#N` [Example 107, 2-((2S,4S)-1-acryloyl-4-(8-chloro-7-(2,3-dichlorophenyl)-4-(3-(dimethylamino)azetidin-1-yl)-6-fluoro-1H-imidazo[4,5-c]quinolin-1-yl)piperidin-2-yl)acetonitrile], in that order: not above 100 nM and not above 100 nM.
For `C=CC(=O)N1CC[C@H](n2nnc3c(OC[C@@H]4CCCN4C)nc4c(F)c(-c5c(C)c(Cl)cc6[nH]ncc56)c(Cl)cc4c32)C[C@H]1CC#N` [Example 190a, 2-((2S,4S)-1-acryloyl-4-(8-chloro-7-(6-chloro-5-methyl-1H-indazol-4-yl)-6-fluoro-4-(((S)-1-methylpyrrolidin-2-yl)methoxy)-1H-[1,2,3]triazolo[4,5-c]quinolin-1-yl)piperidin-2-yl)acetonitrile], in that order: not above 100 nM and not above 100 nM.
On the same counts, the results for `C=CC(=O)N1CC[C@H](n2cnc3c(N4CC(N(C)C)C4)nc4c(F)c(-c5cc(O)ccc5C)c(Cl)cc4c32)C[C@H]1CC#N` (single isomer, unassigned) [Example 53a] are not above 100 nM and not above 100 nM.
Regarding `Cc1cccc(-c2c(C)cc3c(nc(N4CCOCC4=O)c4nnn([C@H]5CCN(C(=O)/C=C/CF)[C@H](CC#N)C5)c43)c2F)c1Cl` [Example 261, 2-((2S,4S)-4-(7-(2-chloro-3-methylphenyl)-6-fluoro-8-methyl-4-(3-oxomorpholino)-1H-[1,2,3]triazolo[4,5-c]quinolin-1-yl)-1-((E)-4-fluorobut-2-enoyl)piperidin-2-yl)acetonitrile], the IC50 (in experiment [1]; on KRAS G12C) was not above 100 nM throughout.
Consider `C=CC(=O)N1CC[C@H](n2nnc3c(OC[C@@H]4CCCN4C)nc4c(F)c(-c5ccccc5)c(Cl)cc4c32)C[C@H]1CC#N` [Example 155, 2-((2S,4S)-1-acryloyl-4-(8-chloro-6-fluoro-4-(((S)-1-methylpyrrolidin-2-yl)methoxy)-7-phenyl-1H-[1,2,3]triazolo[4,5-c]quinolin-1-yl)piperidin-2-yl)acetonitrile], for which the IC50 (in experiment [1]; on KRAS G12C) was not above 100 nM throughout.
